Measurements from ChEMBL document CHEMBL5505986, “Design, synthesis and biological evaluation of thiazolyl-halogenated pyrroles or pyrazoles as novel antibacterial and antibiofilm agents” (Eur J Med Chem, 2024).
Values after ≈ are worked out from the molar mass of the structure shown. Active and inactive are the calls of the source. The calls are words filed in the database; no cut-off is given here.

How the values were obtained:
[1] = system: Staphylococcus aureus; assay: Antibacterial activity against vancomycin-intermediate resistant Staphylococcus aureus ATCC 700699/Mu50 assessed as reduction in bacterial growth incubated for 24 hrs by broth microdilution method; type: functional
[2] = system: Streptococcus pyogenes; assay: Antibacterial activity against Streptococcus pyogenes ATCC 12204 assessed as reduction in bacterial growth incubated for 24 hrs by broth microdilution method; type: functional
[3] = system: Enterococcus faecium; assay: Antibacterial activity against clinical isolate Enterococcus faecium assessed as reduction in bacterial growth incubated for 24 hrs by broth microdilution method; type: functional
[4] = system: Pseudomonas aeruginosa; assay: Antibacterial activity against Pseudomonas aeruginosa ATCC 47085 assessed as reduction in bacterial growth incubated for 24 hrs by broth microdilution method; type: functional
[5] = system: Klebsiella pneumoniae; assay: Antibacterial activity against Klebsiella pneumoniae ATCC 13883 assessed as reduction in bacterial growth incubated for 24 hrs by broth microdilution method; type: functional
[6] = system: Acinetobacter baumannii; assay: Antibacterial activity against Acinetobacter baumannii ATCC 19606 assessed as reduction in bacterial growth incubated for 24 hrs by broth microdilution method; type: functional
[7] = system: Staphylococcus aureus; assay: Antibiofilm activity against vancomycin-intermediate resistant Staphylococcus aureus ATCC 700699/Mu50 at sub-MIC doses measured after 24 hrs by crystal violet staining based analysis; type: functional
[8] = system: Enterococcus faecium; assay: Antibiofilm activity against Enterococcus faecium clinical isolate at sub-MIC doses measured after 24 hrs by crystal violet staining based analysis; type: functional
[9] = system: Pseudomonas aeruginosa; assay: Antibiofilm activity against Pseudomonas aeruginosa ATCC 47085 at sub-MIC doses measured after 24 hrs by crystal violet staining based analysis; type: functional
[10] = system: Staphylococcus aureus; assay: Antibiofilm activity against vancomycin-intermediate resistant Staphylococcus aureus ATCC 700699/Mu50 at 1/8 time MIC measured after 24 hrs by crystal violet staining based analysis; type: functional, organism-based
[11] = system: Enterococcus faecium; assay: Antibiofilm activity against Enterococcus faecium clinical isolate at 1/8 times MIC measured after 24 hrs by crystal violet staining based analysis; type: functional, organism-based
[12] = system: Pseudomonas aeruginosa; assay: Antibiofilm activity against Pseudomonas aeruginosa ATCC 47085 at 8 to 16 ug/ml measured after 24 hrs by crystal violet staining based analysis; type: functional, organism-based; conditions: dose 8-16 µg/ml
[13] = system: Staphylococcus aureus; assay: Antibacterial activity against community associated methicillin-resistant Staphylococcus aureus USA400 assessed as reduction in bacterial growth incubated for 24 hrs by broth microdilution method; type: functional
[14] = system: Staphylococcus aureus; assay: Antibacterial activity against community associated methicillin-resistant Staphylococcus aureus USA300 assessed as reduction in bacterial growth incubated for 24 hrs by broth microdilution method; type: functional
[15] = system: Enterococcus faecium; assay: Antibacterial activity against Enterococcus faecium Efm-HS0649 assessed as reduction in bacterial growth incubated for 24 hrs by broth microdilution method; type: functional
[16] = system: Enterococcus faecium; assay: Antibacterial activity against Enterococcus faecium Efm-HS06188 assessed as reduction in bacterial growth incubated for 24 hrs by broth microdilution method; type: functional
[17] = system: Enterococcus faecium; assay: Antibacterial activity against glycopeptide-resistant Enterococcus faecium vanB type assessed as reduction in bacterial growth incubated for 24 hrs by broth microdilution method; type: functional
[18] = system: NCI-H1299; assay: Cytotoxicity against human NCI-H1299 cells measured after 72 hrs by SRB assay; type: functional, cell-based; conditions: NCI-H1299, 72 h
[19] = system: NCI-H1975; assay: Cytotoxicity against human NCI-H1975 cells measured after 72 hrs by SRB assay; type: functional, cell-based; conditions: NCI-H1975, 72 h
[20] = Metabolic stability in human liver microsomes assessed as metabolic bioavailability at 0.1 uM preincubated for 10 mins followed by NADPH addition and measured upto 60 mins by LC-MS/MS analysis; type: ADME, Microsome; conditions: time < 70 min
[21] = Metabolic stability in mouse liver microsomes assessed as metabolic bioavailability at 0.1 uM preincubated for 10 mins followed by NADPH addition and measured upto 60 mins by LC-MS/MS analysis; type: ADME, Microsome; conditions: time < 70 min
[22] = Metabolic stability in rat liver microsomes assessed as metabolic bioavailability at 0.1 uM preincubated for 10 mins followed by NADPH addition and measured upto 60 mins by LC-MS/MS analysis; type: ADME, Microsome; conditions: time < 70 min
[23] = Metabolic stability in dog liver microsomes assessed as metabolic bioavailability at 0.1 uM preincubated for 10 mins followed by NADPH addition and measured upto 60 mins by LC-MS/MS analysis; type: ADME, Canis lupus familiaris, Microsome; conditions: time < 70 min
[24] = Metabolic stability in monkey liver microsomes assessed as metabolic bioavailability at 0.1 uM preincubated for 10 mins followed by NADPH addition and measured upto 60 mins by LC-MS/MS analysis; type: ADME, Macaca mulatta, Microsome; conditions: rhesus monkey, time < 70 min
[25] = system: Streptococcus pyogenes; assay: Antibacterial activity against Streptococcus pyogenes infected in Galleria mellonella larvae infection model assessed as prolongation of median survival time at 1 mg/kg pre-infected with bacteria for 1 hr followed by compound addition measured every 12 hrs for 3 days (reference value: 24 hrs); type: functional; conditions: time 3 day
[26] = system: Streptococcus pyogenes; assay: Antibacterial activity against Streptococcus pyogenes infected in Galleria mellonella larvae infection model assessed as increase in number of surviving larvae at 1 mg/kg pre-infected with bacteria for 1 hr followed by compound addition measured every 12 hrs for 3 days; type: functional, organism-based; conditions: time 3.0 day
[27] = Toxicity in Galleria mellonella larvae assessed as reduction in animal survival at 20 mg/kg; type: organism-based; conditions: in vivo, 80 h

With `COc1ccc(O)c(-c2csc(-c3cc(Cl)c(Cl)[nH]3)n2)c1` the MIC [1] was over 256 µg/mL, the MIC [2] was over 256 µg/mL and the MIC [3] was over 256 µg/mL.

In the case of `Oc1c(Br)cc(Br)cc1-c1csc(-c2cc(C(F)(F)F)n[nH]2)n1`, the MIC [1] is reported as 2 µg/mL (≈ 4.26 µM), the MIC [2] is reported as 4 µg/mL (≈ 8.53 µM) and the MIC [3] is reported as 4 µg/mL (≈ 8.53 µM). For the same compound, the MIC [4] was over 256 µg/mL, the MIC [5] was over 256 µg/mL and the MIC [6] was over 256 µg/mL. The Activity [7] was over 60%, the Activity [8] was over 60% and the Activity [9] was over 60%. For the same compound, the Activity [10] was “Active”, the Activity [11] was “Active” and the Activity [12] was “Active”.

`O=[N+]([O-])c1ccc(O)c(-c2csc(-c3cc(Cl)c(Cl)[nH]3)n2)c1` gave an MIC [1] of over 256 µg/mL, an MIC [2] of 32 µg/mL (≈ 89.8 µM) and an MIC [3] of over 256 µg/mL.

`Oc1c(Cl)cc(Cl)cc1-c1csc(-c2[nH]c(Br)c(Br)c2Br)n1` gave an MIC [1] of over 256 µg/mL, an MIC [2] of 0.25 µg/mL (≈ 0.456 µM) and an MIC [3] of 0.5 µg/mL (≈ 0.913 µM). The MIC [4] was over 256 µg/mL, the MIC [5] was over 256 µg/mL and the MIC [6] was over 256 µg/mL.

Compound `Oc1ccccc1-c1csc(-c2cc(Cl)c(Cl)[nH]2)n1` has an MIC [1] of over 256 µg/mL, an MIC [2] of over 256 µg/mL and an MIC [3] of over 256 µg/mL.

Work on `Oc1c(Br)cc(C(F)(F)F)cc1-c1csc(-c2[nH]c(Br)c(Br)c2Br)n1` yielded an MIC [1] of 2 µg/mL (≈ 3.2 µM), an MIC [2] of at most 0.125 µg/mL and an MIC [3] of at most 0.125 µg/mL. It also gave an MIC [4] of over 256 µg/mL, an MIC [5] of over 256 µg/mL and an MIC [6] of over 256 µg/mL. The MIC [13] was 16 µg/mL (≈ 25.6 µM), the MIC [14] was 16 µg/mL (≈ 25.6 µM) and the MIC [15] was at most 0.125 µg/mL. The MIC [16] was at most 0.125 µg/mL, the MIC [17] was 0.5 µg/mL (≈ 0.799 µM) and the IC50 [18] was 8.25 µg/mL (≈ 13.2 µM). It also gave an IC50 [19] of 4.4 µg/mL (≈ 7.03 µM), a Fh at 1 h, 0.1 µM [20] of 2.26% and a Fh at 1 h, 0.1 µM [21] of 43.3%. The Fh at 1 h, 0.1 µM [22] was 65.7%, the Fh at 1 h, 0.1 µM [23] was 18.4% and the Fh at 1 h, 0.1 µM [24] was 36.9%. For the same compound, the Activity [7] was over 60%, the Activity [8] was over 60% and the Activity [9] was over 60%. The Activity [10] was “Active”, the Activity [12] was “Active” and the MST [25] was 36 h. The Activity [26] was “Active” and the Activity [27] was “Non-Toxic”.

Work on POLYMYXIN B yielded an MIC [4] of 4 µg/mL, an MIC [5] of 2 µg/mL and an MIC [6] of 2 µg/mL. The Activity [7] was “inactive”, the Activity [8] was “inactive” and the Activity [9] was “inactive”.

With `FC(F)(F)c1cc(Br)cc(-c2csc(-c3[nH]c(Br)c(Br)c3Br)n2)c1` the MIC [1] was 16 µg/mL (≈ 26.2 µM), the MIC [2] was 16 µg/mL (≈ 26.2 µM) and the MIC [3] was 32 µg/mL (≈ 52.5 µM).

`CN[C@H](CC(C)C)C(=O)N[C@H]1C(=O)N[C@@H](CC(N)=O)C(=O)N[C@H]2C(=O)N[C@H]3C(=O)N[C@H](C(=O)N[C@H](C(=O)O)c4cc(O)cc(O)c4-c4cc3ccc4O)[C@H](O)c3ccc(c(Cl)c3)Oc3cc2cc(c3O[C@@H]2O[C@H](CO)[C@@H](O)[C@H](O)[C@H]2O[C@H]2C[C@](C)(N)[C@H](O)[C@H](C)O2)Oc2ccc(cc2Cl)[C@H]1O` [VANCOMYCIN] showed an MIC [1] of 8 µg/mL (≈ 5.52 µM), an MIC [2] of 0.25 µg/mL (≈ 0.173 µM) and an MIC [3] of 16 µg/mL (≈ 11 µM). For the same compound, the MIC [15] was over 256 µg/mL, the MIC [16] was over 256 µg/mL and the Activity [7] was “inactive”. The Activity [8] was “inactive” and the Activity [9] was “inactive”.

`Cc1cc(Cl)c(O)c(-c2csc(-c3cc(Cl)c(Cl)[nH]3)n2)c1` showed an MIC [1] of over 256 µg/mL, an MIC [2] of over 256 µg/mL and an MIC [3] of over 256 µg/mL.

With `COc1c(Cl)cc(Cl)cc1-c1csc(-c2[nH]c(Br)c(Br)c2Br)n1` the MIC [1] was over 256 µg/mL, the MIC [2] was over 256 µg/mL and the MIC [3] was over 256 µg/mL.

`Oc1c(Br)cc(C(F)(F)F)cc1-c1csc(-c2cc(Cl)c(Cl)[nH]2)n1` showed an MIC [1] of 1 µg/mL (≈ 2.18 µM), an MIC [2] of at most 0.125 µg/mL and an MIC [3] of over 256 µg/mL.
